Among the data in paper PMC5481357, “Characterization of Three L-Asparaginases from Maritime Pine (Pinus pinaster Ait.)” (Frontiers in Plant Science, 2017) are Km values, retold here.

What all share (assay): GOT/MDH-coupled aspartate release, NADH oxidation; Hanes-Woolf
Holding throughout (assay type): biochemical, Pinus pinaster
Details in all cases: 50 mM HEPES pH 7.8, 50 mM KCl

In assay [1] the test system is T1, PpASPG1.
T1 construct: full ORF (1128 nt, 375 residues incl. 77-residue variable loop), expressed in Nicotiana benthamiana; conventional purification, untagged by the measured beta mass; autocleaved before Thr245 into alpha (26,431 Da, Met1 removed) and beta (13,325 Da); plant ASPG (alpha beta)2

Another assay concerns T2, PpASPG3.
T2 construct: full ORF (918 nt, 305 residues) with C-terminal HA and poly-His tag, expressed in Nicotiana benthamiana, Ni-TED purified; partly processed into alpha and beta subunits

For assay [2], the system named is T1, PpASPG1. The source says: GOT/MDH-coupled aspartate release, NADH oxidation; Hanes-Woolf on […]1 | changes in the Km and Vmax values for L-Asn and β-L-Asp-L-Ala (Supplementary Table S3)
This is another data set of the same source.

Molecules are shown by their SMILES.

For `NC(=O)C[C@H](N)C(=O)O` [L-Asn], the Michaelis constant (Km) (in general, the substrate concentration at which the rate is half of its maximum) in the assay on PpASPG1 [1] is 4.58 ± 0.03 mM; with PpASPG3, 6.12 ± 0.96 mM; in the assay with PpASPG1 [2] (deletion variant with C-terminal HA and poly-His tag, partly unprocessed precursor) it was 7.16 ± 0.88 mM.
Take `C[C@H](NC(=O)C[C@H](N)C(=O)O)C(=O)O` [β-L-Asp-L-Ala]: the Km in the assay with PpASPG1 [1] turned out to be 56.7 ± 13.9 mM; in the assay on PpASPG3 it was 1.04 ± 0.21 mM; with PpASPG1 [2] it was 9.44 ± 0.82 mM.
